Experimental data published in US9649294B2, “Glucagon receptor antagonist compounds, compositions containing such compounds and methods of use” (Merck Sharp & Dohme Corp., priority 2013, dated 2017).
Blank lines part the entries; values can stand above or below the compound they belong to.

Assays:
[1] = target: T1, human glucagon receptor (Homo sapiens, UniProt P47871); assay: Glucagon receptor binding assay (125I-glucagon, SPA, CHO cell membranes); details: CHO cell membranes expressing cloned human glucagon receptor
T1 construct: expressed in transfected cells; host or cells: CHO cells
Method: A stable CHO (Chinese hamster ovary) cell line expressing cloned human glucagon receptor was maintained as described (Chicchi et al. J Biol Chem 272, 7765-9(1997); Cascieri et al. J_Biol Chem 274, 8694-7(1999)). […] After 4-12 hours incubation at room temperature, the radioactivity bound to the cell membranes was determined in a radioactive emission detection counter (Wallac-Microbeta). Data was analyzed using the software program Prism from GraphPad. IC50 values were calculated using non-linear regression analysis assuming single site competition.

[2] = Pharmacokinetic study in dog; format: in vivo, dogs; details: for MRT / half-life: PK study (IV 0.5 mg/kg, oral 2 mg/kg); for MRT: read-out: MRT, mean residence time; for half-life: read-out: T1/2, terminal half-life (converted)
Method: (§1) Intravenous (IV) PK studies were conducted at a dose of 1 mg/kg in hGCGR mice and rats and 0.5 mg/kg in dogs and rhesus monkeys. The IV doses were formulated in ethanol:PEG400:water (20:30:50 v/v/v). Oral PK studies were conducted at a dose of 2 mg/kg in mice, rats, dogs and monkeys. The oral doses were formulated in ethanol:PEG400:water (20:30:50 v/v/v) for dosing in mice and rats and in 0.5% methylcellulose in dogs and monkeys.
(§2) Plasma was prepared for analysis by protein precipitation with acetonitrile. Plasma concentrations were determined by LC-MS/MS using ABI Sciex API 4000 or 5000 mass spectrometers operated in atmospheric pressure chemical ionization mode with multiple-reaction monitoring.
(§3) Pharmacokinetic parameters were calculated with a non-compartmental model using Watson software (Watson Software, Thermo Fisher, Waltham, Mass., USA). The area under the plasma concentration versus time curve from 0 to 24 h (AUC0-24) was determined using linear trapezoidal interpolation in the ascending slope and logarithmic trapezoidal interpolation in the descending slope. The portion of the AUC from the last measurable concentration to infinity ([…]) was estimated by Ct/kel, where Ct represents the last measurable concentration and kel is the elimination rate constant. The latter was determined from the concentration versus time curve at the terminal phase by linear regression of the semilogarithmic plot. Oral bioavailability (F) was estimated as the AUC0-inf ratio following oral and i.v. administration normalized for differences in dose. The apparent half-life (t1/2) was estimated from the slope of the terminal phase of the log plasma concentration-time curve. MRT, the average time a compound molecule resides in the body, is calculated with the following equation: MRT=AUMC/AUC. In this equation AUMC is the area under the first moment curve and is determined as the area under the curve of a plot of the product of concentration and time versus time. AUC is equal to AUC0-inf.

[3] = Pharmacokinetic study in rhesus monkey; format: in vivo, rhesus monkeys; details: for MRT / half-life: PK study (IV 0.5 mg/kg, oral 2 mg/kg); for MRT: read-out: MRT, mean residence time; for half-life: read-out: T1/2, terminal half-life (converted)
Method: as §1, §2, §3

[4] = target: T1, human glucagon receptor; assay: Inhibition of glucagon-stimulated intracellular cAMP formation; format: cell-based; details: CHO cells expressing human glucagon receptor; glucagon 250 pM
Method: Exponentially growing CHO cells expressing human glucagon receptor were harvested with the aid of enzyme-free dissociation media (Specialty Media), pelleted at low speed, and re-suspended in the Cell Stimulation Buffer included in the Flash Plate cAMP kit (New England Nuclear, SMP0004A). The adenylate cyclase assay was setup as per manufacturer instructions. Briefly, compounds were diluted from stocks in DMSO and added to cells at a final DMSO concentration of 5%. Cells prepared as above were preincubated in flash plates coated with anti-cAMP antibodies (NEN) in presence of compounds or DMSO controls for 30 minutes, and then stimulated with glucagon (250 pM) for an additional 30 minutes. The cell stimulation was stopped by addition of equal amount of a detection buffer containing lysis buffer as well as ^125I-labeled cAMP tracer (NEN). After 3 hours of incubation at room temperature the bound radioactivity was determined in a liquid scintillation counter (TopCount-Packard Instruments). Basal activity (100% inhibition) was determined using the DMSO control while 0% inhibition was defined at the amount of pmol cAMP produced by 250 pM glucagon.

[5] = Pharmacokinetic study in rat; format: in vivo, rats; details: for MRT / half-life: PK study (IV 1 mg/kg, oral 2 mg/kg); for MRT: read-out: MRT, mean residence time; for half-life: read-out: T1/2, terminal half-life (converted)
Method: as §1, §2, §3

[6] = Pharmacokinetic study in mouse; format: in vivo, hGCGR mice; details: for MRT / half-life: PK study (IV 1 mg/kg, oral 2 mg/kg); for MRT: read-out: MRT, mean residence time; for half-life: read-out: T1/2, terminal half-life (converted)
Method: as §1, §2, §3

T1 sequence (P47871 26-477): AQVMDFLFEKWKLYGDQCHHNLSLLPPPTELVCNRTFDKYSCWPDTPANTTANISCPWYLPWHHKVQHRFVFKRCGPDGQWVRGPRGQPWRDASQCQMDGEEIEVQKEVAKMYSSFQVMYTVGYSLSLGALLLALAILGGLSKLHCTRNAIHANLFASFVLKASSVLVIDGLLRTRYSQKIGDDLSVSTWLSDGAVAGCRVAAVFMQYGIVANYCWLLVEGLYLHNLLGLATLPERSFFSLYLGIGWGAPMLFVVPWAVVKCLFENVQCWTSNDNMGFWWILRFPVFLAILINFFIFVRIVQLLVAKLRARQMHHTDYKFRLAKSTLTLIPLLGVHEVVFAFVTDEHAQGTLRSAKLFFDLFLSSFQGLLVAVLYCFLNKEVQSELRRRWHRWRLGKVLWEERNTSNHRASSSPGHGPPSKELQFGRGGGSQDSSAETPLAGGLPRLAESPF

IC50 [1]: 0.24 nM | MRT longer compared to MK-3577 [2]: ca. 3.8 fold | T1/2 longer compared to MK-3577 [2]: ca. 3.3 fold | Oral AUCnorm(0-∞) ([2]; oral 2 mg/kg, dose-normalized): 16 µM·kg·h/mg | clearance ([2]; plasma, IV 0.5 mg/kg, read-out: Clp, plasma clearance): 0.63 mL/min/kg | Vd ([2]; plasma, IV 0.5 mg/kg, read-out: Vdss, volume of distribution at steady state): 0.72 L/kg | MRT ([2]; plasma): 20 h | half-life ([2]; plasma): 16 h | bioavailability ([2]; plasma, oral 2 mg/kg vs IV 0.5 mg/kg, read-out: F, oral bioavailability): 30% | MRT longer compared to MK-3577 [3]: ~3.4 fold | T1/2 longer compared to MK-3577 [3]: ~2.2 fold | Oral AUCnorm(0-∞) ([3]; oral 2 mg/kg, dose-normalized): 6 µM·kg·h/mg | clearance ([3]; rhesus monkey, plasma, IV 0.5 mg/kg, read-out: Clp, plasma clearance): 3 mL/min/kg | Vd ([3]; rhesus monkey, plasma, IV 0.5 mg/kg, read-out: Vdss, volume of distribution at steady state): 2 L/kg | MRT ([3]; rhesus monkey, plasma): 11 h | half-life ([3]; rhesus monkey, plasma): 11 h | bioavailability ([3]; rhesus monkey, plasma, oral 2 mg/kg vs IV 0.5 mg/kg, read-out: F, oral bioavailability): 47% | IC50 [4]: 19.2 nM | MRT compared to MK-3577 [5]: over 3 fold | T1/2 longer compared to MK-3577 [5]: ~1.5 fold | Oral AUCnorm(0-∞) ([5]; oral 2 mg/kg, dose-normalized): 1.2 µM·kg·h/mg | clearance ([5]; plasma, IV 1 mg/kg, read-out: Clp, plasma clearance): 18 mL/min/kg | Vd ([5]; plasma, IV 1 mg/kg, read-out: Vdss, volume of distribution at steady state): 3.2 L/kg | MRT ([5]; plasma): 2.9 h | half-life ([5]; plasma): 2.2 h | bioavailability ([5]; plasma, oral 2 mg/kg vs IV 1 mg/kg, read-out: F, oral bioavailability): 76% | MRT compared to MK-3577 [6]: ~4.5 fold | T1/2 longer compared to MK-3577 [6]: ~2.9 fold | clearance ([6]; hGCGR, plasma, IV 1 mg/kg, read-out: Clp, plasma clearance): 3.5 mL/min/kg | Vd ([6]; hGCGR, plasma, IV 1 mg/kg, read-out: Vdss, volume of distribution at steady state): 2.2 L/kg | MRT ([6]; hGCGR, plasma): 10 h | half-life ([6]; hGCGR, plasma): 8.2 h | bioavailability ([6]; hGCGR, plasma, oral 2 mg/kg vs IV 1 mg/kg, read-out: F, oral bioavailability): 87% | Oral AUCnorm(0-∞) ([6]; oral 2 mg/kg, dose-normalized): 8.0 µM·kg·h/mg
Compound: CCC[C@H](c1ccc(C(=O)NCCC(=O)O)cc1)[C@H](c1ccc(OC(F)(F)F)cc1)c1c[nH]c2c(F)cc(Cl)cc12 [Example 1, 3-(4-((1R,2S)-1-(5-Chloro-7-Fluoro-1H-Indol-3-yl)-1-(4-(Trifluoromethoxy)Phenyl)Pentan-2-yl)Benzamido)Propanoic Acid]

MRT ([2]; plasma): 5.2 h | half-life ([2]; plasma): 4.9 h | MRT ([3]; rhesus monkey, plasma): 3.2 h | half-life ([3]; rhesus monkey, plasma): 5.1 h | MRT ([5]; plasma): 0.9 h | half-life ([5]; plasma): 1.4 h | MRT ([6]; hGCGR, plasma): 2.2 h | half-life ([6]; hGCGR, plasma): 2.8 h
Compound: CCC[C@H](c1ccc(C(=O)NCCC(=O)O)cc1)[C@H](c1ccc(Cl)cc1)c1c[nH]c2c(F)cc(C)cc12 [MK3577, reference compound]
